According to the NIST ThermoML archive (doi:10.1021/je700370z):
Values joined by “and” are separate entries in the source; they are usually repeats but may differ in a detail not shown here. Identical values can stand only once.

Details: Liquid; for viscosity: Falling or rolling sphere viscometry; for mass density: Vibrating tube method

CCCCn1cc[n+](C)c1.F[B-](F)(F)F [1-butyl-3-methylimidazolium tetrafluoroborate]
Details | mass density | viscosity
273.15 K, 100 kPa | 1219.64 kg/m3 | 543 mPa·s and 542.8 mPa·s
273.15 K, 101.33 kPa | 1219.5 kg/m3 and 1219.64 kg/m3 | 510.8 mPa·s and 511 mPa·s
278.15 K, 101.33 kPa | 1215.79 kg/m3 | 353 mPa·s and 352.9 mPa·s
283.15 K, 100 kPa | 1212.22 kg/m3 | 263.7 mPa·s and 263.8 mPa·s
283.15 K, 101.33 kPa | 1212.07 kg/m3 and 1212.22 kg/m3 | 250.7 mPa·s and 250.6 mPa·s
283.15 K, 800 kPa | 1212.53 kg/m3 | 266.3 mPa·s
283.15 K, 11000 kPa | 1217.32 kg/m3 | 302.2 mPa·s
283.15 K, 24900 kPa | 1223.58 kg/m3 | 359.1 mPa·s
283.15 K, 49600 kPa | 1234.03 kg/m3 | 484.8 mPa·s
283.15 K, 75300 kPa | 1244.07 kg/m3 | 655.9 mPa·s
283.15 K, 100600 kPa | 1253.28 kg/m3 | 875 mPa·s
288.15 K, 101.33 kPa | 1208.38 kg/m3 | 182.4 mPa·s
293.15 K, 100 kPa | 1204.98 kg/m3 | 142.1 mPa·s and 142 mPa·s
293.15 K, 101.33 kPa | 1204.83 kg/m3 and 1204.98 kg/m3 | 135.6 mPa·s and 135.7 mPa·s
298.15 K, 100 kPa | 1201.43 kg/m3 | 108 mPa·s and 108.5 mPa·s and 108.7 mPa·s
298.15 K, 101.33 kPa | 1201.29 kg/m3 and 1201.43 kg/m3 | 103.7 mPa·s [middle of 4 runs]
298.15 K, 500 kPa | 1201.61 kg/m3 | 108.6 mPa·s
298.15 K, 25900 kPa | 1213.76 kg/m3 | 142.6 mPa·s
298.15 K, 50800 kPa | 1224.72 kg/m3 | 185 mPa·s
298.15 K, 75900 kPa | 1234.94 kg/m3 | 239.8 mPa·s
298.15 K, 101100 kPa | 1244.42 kg/m3 | 308.3 mPa·s
298.15 K, 126200 kPa | 1253.22 kg/m3 | 393.9 mPa·s
298.15 K, 150600 kPa | 1261.21 kg/m3 | 499.9 mPa·s
298.15 K, 150700 kPa | 1261.23 kg/m3 | 500.6 mPa·s
298.15 K, 175400 kPa | 1268.78 kg/m3 | 634.7 mPa·s
298.15 K, 200900 kPa | 1276.07 kg/m3 | 808.3 mPa·s
303.15 K, 100 kPa | 1197.88 kg/m3 | 84.6 mPa·s
303.15 K, 101.33 kPa | 1197.75 kg/m3 and 1197.88 kg/m3 | 80.6 mPa·s and 80.7 mPa·s
313.15 K, 100 kPa | 1190.78 kg/m3 | 53.5 mPa·s and 53.6 mPa·s
313.15 K, 101.33 kPa | 1190.68 kg/m3 | 51.3 mPa·s
323.15 K, 100 kPa | 1183.79 kg/m3 | 35.6 mPa·s
323.15 K, 101.33 kPa | 1183.67 kg/m3 and 1183.79 kg/m3 | 34.6 mPa·s
323.15 K, 140 kPa | 1183.79 kg/m3 | 36 mPa·s
323.15 K, 10495 kPa | 1189.26 kg/m3 | 39.3 mPa·s
323.15 K, 25446 kPa | 1196.8 kg/m3 | 44.5 mPa·s
323.15 K, 50493 kPa | 1208.59 kg/m3 | 55.5 mPa·s
323.15 K, 75560 kPa | 1219.46 kg/m3 | 68.1 mPa·s
323.15 K, 100566 kPa | 1229.48 kg/m3 | 83.3 mPa·s
323.15 K, 125543 kPa | 1238.76 kg/m3 | 101.5 mPa·s
323.15 K, 150422 kPa | 1247.36 kg/m3 | 123.2 mPa·s
323.15 K, 175463 kPa | 1255.42 kg/m3 | 149.2 mPa·s
323.15 K, 200347 kPa | 1262.9 kg/m3 | 180.1 mPa·s
323.15 K, 225321 kPa | 1269.94 kg/m3 | 216.9 mPa·s
323.15 K, 250139 kPa | 1276.5 kg/m3 | 260.9 mPa·s
333.15 K, 100 kPa | 1176.81 kg/m3 | 25.2 mPa·s and 25.5 mPa·s
333.15 K, 101.33 kPa | 1176.7 kg/m3 and 1176.81 kg/m3 | 24.5 mPa·s
343.15 K, 100 kPa | 1169.87 kg/m3 | 18.4 mPa·s and 18 mPa·s
343.15 K, 101.33 kPa | 1169.79 kg/m3 | 18.1 mPa·s
348.15 K, 100 kPa | 1166.45 kg/m3 | 16.2 mPa·s and 15.9 mPa·s
348.15 K, 101.33 kPa | 1166.45 kg/m3 | –
348.15 K, 11700 kPa | 1172.95 kg/m3 | 17.4 mPa·s
348.15 K, 25200 kPa | 1180.23 kg/m3 | 19.4 mPa·s
348.15 K, 50700 kPa | 1192.94 kg/m3 | 23.3 mPa·s
348.15 K, 75600 kPa | 1204.4 kg/m3 | 27.8 mPa·s
348.15 K, 100600 kPa | 1214.97 kg/m3 | 33 mPa·s
348.15 K, 125600 kPa | 1224.72 kg/m3 | 38.8 mPa·s
348.15 K, 150600 kPa | 1233.78 kg/m3 | 45.6 mPa·s
348.15 K, 175600 kPa | 1242.2 kg/m3 | 53.4 mPa·s
348.15 K, 200600 kPa | 1250.04 kg/m3 | 62.3 mPa·s
348.15 K, 225500 kPa | 1257.34 kg/m3 | 72.6 mPa·s
348.15 K, 250400 kPa | 1264.17 kg/m3 | 84.6 mPa·s
348.15 K, 275300 kPa | 1270.59 kg/m3 | 98.4 mPa·s
348.15 K, 300000 kPa | 1276.57 kg/m3 | 114 mPa·s
353.15 K, 101.33 kPa | 1162.92 kg/m3 | 13.9 mPa·s and 13.8 mPa·s
360.15 K, 101.33 kPa | 1158.27 kg/m3 | –
362.76 K, 101.33 kPa | 1156.51 kg/m3 | –
363.15 K, 101.33 kPa | 1156.11 kg/m3 | –
363.16 K, 101.33 kPa | 1156.22 kg/m3 | –
